Experimental data reported in patent US20250066737A1, “METHOD FOR ESTABLISHING LUNG CANCER CELL MODEL HAVING VASCULAR TUBES, PLATFORM FOR LUNG CANCER MEDICINE SCREENING AND METHOD FOR USING THEREOF” (National Cheng Kung University Hospital, priority 2023, published 2025).

Assays:
[1] = system: H1299-EGFRmt cell model; test: Cell viability, H1299-EGFRmt cell model; format: cell-based
Experimental: (§1) Cell viability was determined using an MTT assay.

[2] = system: H1299-EGFRwt and H1299-EGFRmt cell models; test: 3D-VM vasculature under single use of osimertinib (cell model not given); format: cell-based
Experimental: (§2) The assessment of in vitro vasculogenic mimicry (VM) capabilities of cancer cells was conducted utilizing the Matrigel tube formation assay. Chamber slides (TruLive3D Dishes, Burker) were prepared by applying a 100 μl layer of growth factor-reduced Matrigel (Corning) and subsequently allowing for gel solidification over a 30-minute period at 37° C. […] This preparation was then incubated for an additional 30 minutes at 37° C. within a CO2 incubator. […]
(§3) The quantification of tube or lumen formation of 3D-VM vasculature was conducted utilizing an analytical approach on at least eight distinct areas of interest (AOIs), among which three AOIs were specified as representative sections of images. […] First, the AOI was identified and quantified. Following this, the mean ROI was calculated by aggregating the ROIs for all eight AOIs (area 1+ area 2+ . . . area 8) and dividing this sum by eight, thereby deriving an average area that reflects the typical dimensions of the regions analyzed in each individual lung cancer cell model. […]
(§4) The entire quantification process was facilitated by employing the Angiogenesis Analyzer for ImageJ.

[3] = system: H1299-EGFRwt cell model; details: osimertinib
Experimental: Cell viability was determined using an MTT assay. Cells were plated at a density of 4×10^3 cells/well within 96-well plates. These cells were then exposed to various concentrations of anti-vasculogenic mimicry (anti-VM) compounds across different time points: 0, 24, 48, and 72 hours. Following the treatment period, the MTT reagent (sourced from Sigma) was added to each well, and the cells were incubated at 37° C. for 2 hours. Subsequently, the plates were centrifuged at 1500 rpm for 10 minutes to facilitate the removal of the supernatant. The resultant formazan crystals were dissolved using dimethyl sulfoxide (DMSO), and the absorbance of the solution, indicative of cell viability, was measured at a wavelength of 492 nm using an ELISA plate reader.

[4] = system: phosphorylated EGFR; details: Western blot, H1299, H1299-EGFRwt, H1299-EGFRmt cell models
Experimental: (§7) Cells were seeded at a density of 2×10^6 cells in a 6 cm culture dish for protein sample preparation. […] After centrifugation, the cell lysate samples were boiled with 6X sample buffer for 10 minutes. The cell lysate protein samples were separated by SDS-PAGE and transferred to polyvinylidene difluoride (PVDF) membranes (Millipore). The membranes were then blocked with 5% skim milk (HIMEDIA) dissolved in Tris-buffered saline Tween (TBST) buffer for 1 hour, followed by three 10-minute washes with TBST. […] Subsequently, the membranes were incubated with the appropriate secondary antibodies for 1 hour at room temperature. Protein expressions were visualized using Western Lightning Plus ECL (PerkinElmer), detected by the iBright FL1000 imaging system, and analyzed using ImageJ software.

[5] = system: H1650 lung cancer cell model; test: 3D-VM vasculature disruption, H1650 lung cancer cell model (real-time LSFM, lumen quantification); format: cell-based
Experimental: The assessment of in vitro vasculogenic mimicry (VM) capabilities of cancer cells was conducted utilizing the Matrigel tube formation assay. Chamber slides (TruLive3D Dishes, Burker) were prepared by applying a 100 μl layer of growth factor-reduced Matrigel (Corning) and subsequently allowing for gel solidification over a 30-minute period at 37° C. Following solidification, a cell suspension prepared in culture media at a concentration of 1.25×10^5 cells per 150 μl was evenly distributed over the gel surface. This preparation was then incubated for an additional 30 minutes at 37° C. within a CO2 incubator. After this initial incubation period, an overlay of 1× Matrigel mixed with culture medium was applied directly to the cells, so as to obtain a pre-cell model (10), and followed by further incubation at 37° C. for 5 to 24 hours so that a lung cancer cell model (100) was obtained for subsequent 3D-VM observation.
The quantification of tube or lumen formation of 3D-VM vasculature was conducted utilizing an analytical approach on at least eight distinct areas of interest (AOIs), among which three AOIs were specified as representative sections of images. The region of interest (ROI) indicates a delineated patent tube or hollow lumen within each tested cell. First, the AOI was identified and quantified. Following this, the mean ROI was calculated by aggregating the ROIs for all eight AOIs (area 1+ area 2+ . . . area 8) and dividing this sum by eight, thereby deriving an average area that reflects the typical dimensions of the regions analyzed in each individual lung cancer cell model. Finally, the standard average was ascertained by dividing the mean ROI by the mean total tube average. This ratio provides a standardized metric, enabling the effective comparison of anti-3D-VM vasculature efficiency across varying experimental setups or among different cell lines; the formula is as follows: […]
as §4

[6] = system: HCC827 lung cancer cell model; test: 3D-VM vasculature disruption, HCC827 lung cancer cell model (real-time LSFM, lumen quantification); format: cell-based; details: HCC827, 500 nM, 24-hour incubation
Experimental: (§5) The assessment of in vitro vasculogenic mimicry (VM) capabilities of cancer cells was conducted utilizing the Matrigel tube formation assay. Chamber slides (TruLive3D Dishes, Burker) were prepared by applying a 100 μl layer of growth factor-reduced Matrigel (Corning) and subsequently allowing for gel solidification over a 30-minute period at 37° C. Following solidification, a cell suspension prepared in culture media at a concentration of 1.25×10^5 cells per 150 μl was evenly distributed over the gel surface. This preparation was then incubated for an additional 30 minutes at 37° C. within a CO2 incubator. […]
as §3, §4

[7] = system: H1650 cells; test: Cell viability (MTT assay), H1650; format: cell-based; details: H1650 lung cancer cell model, various foslinanib concentrations
Experimental: as §1

[8] = Cell viability (MTT assay), HCC827; format: cell-based; details: human, HCC827 cells; HCC827, 62.5 nM
Experimental: as §1

[9] = system: H1299 cell model; test: Cell viability, H1299 cell model; format: cell-based; details: H1299, high concentration (beyond 250 nM)
Experimental: as §1

[10] = system: H1299-EGFRmt cell model; test: 2D-VM networks inhibition assay via high-content imaging, H1299-EGFRmt; format: cell-based; details: any concentration beyond 31.25 nM
Experimental: (§6) Cells to be tested were plated in 96-well plates (manufactured by Greiner) and allowed to adhere overnight under standard culture conditions. Following attachment, the cells to be tested were exposed to various concentrations of anti-VM compound foslinanib (ABEx BIO-Research Center). The treatment's efficacy, specifically its ability to inhibit VM vasculature, was monitored time-dependent. The assessment of 2D-VM network disruption was conducted using the ImageXpressR Micro Confocal High-Content Imaging System (Molecular Devices LLC). This advanced imaging technology facilitates high-resolution visualization of cell morphology and tubular networks. Analysis of the imaging data was performed using MetaXpress software, allowing for quantitative measurement of 2D-VM network inhibition. This methodological approach provides a robust framework for evaluating the potential of anti-VM compounds.

[11] = system: H1299-EGFRwt cell model; test: 2D-VM networks inhibition assay via high-content imaging, H1299-EGFRwt; format: cell-based; details: high concentration (beyond 31.25 nM)
Experimental: as §6

[12] = system: H1299 cell model; test: 2D-VM networks inhibition assay via high-content imaging, H1299; format: cell-based; details: H1299, compared with H1299-EGFRmt cell model
Experimental: as §6

[13] = system: H1299-EGFRwt cell model; test: 3D-VM vasculature disruption, H1299-EGFRwt cell model; format: cell-based; details: foslinanib 62.5 nM
Experimental: as §2, §3, §4

[14] = system: H1299-EGFRmt cell model; test: 3D-VM vasculature disruption, H1299-EGFRmt cell model; format: cell-based
Experimental: as §5, §3, §4

[15] = system: LAMC2; test: Western blot, LAMC2 in H1299, H1299-EGFRwt and H1299-EGFRmt cell models; format: cell-based; details: across the examined cell lines
Experimental: as §7

[16] = system: various tumor xenograft models; details: cited from earlier work

In the case of C=CC(=O)Nc1cc(Nc2nccc(-c3cn(C)c4ccccc34)n2)c(OC)cc1N(C)CCN(C)C [osimertinib], the cytotoxic effects ([1]; H1299mt cell model, osimertinib) is reported as “cytotoxic effects”, the “3D-VM vasculature (quantitative analysis)” value ([2]; after osimertinib treatment) is reported as “significantly disrupted” and the “formation of 3D-VM vasculature (3D imaging)” value ([2]; osimertinib) is reported as “did not impact”. The cytotoxic effects [3] was “cytotoxic effects” and the “levels of phosphorylated EGFR” value [4] was “markedly reduced”.
With COc1ccc2[nH]c(-c3cccc(F)c3)cc(=O)c2c1OP(=O)(O)O [foslinanib] the “disruption of VM lumens” value ([5]; H1650, 62.5 nM) was “disruption of VM lumens”, the “inhibition of 3D-VM vasculature” value ([5]; H1650, 250 nM and 500 nM) was “significant inhibition” and the lumen area ([5]; H1650, 250 nM and 500 nM) was “significantly reduced”. For the same molecule, the lumen area [6] was “significant reduction”, the “cell toxicity against H1650 cells” value [7] was “no significant cell toxicity” and the viability at 0.0625 µM [8] was 70%. The cell viability ([1]; H1299-EGFRmt, 31.25 nM (range 7.8125 nM to 500 nM)) was “significant decrease”, the cell viability [9] was “suppressed” and the “2D total network area” value [10] was “decreasing trend”. For the same molecule, the “2D total network length” value [10] was “decreasing trend”, the “inhibitory effect on the formation of a 2D-VM network” value [11] was “rather insignificant” and the “2D total network area” value [12] was “less effective inhibition”. The “2D total network length” value [12] was “less effective inhibition”, the “effect on 3D-VM vasculature” value [13] was “disruptive effect” and the “disruption of 3D-VM vasculature (quantitative analysis)” value [14] was “significant”. For the same molecule, the LAMC2 protein levels [15] was “significant decrease” and the anti-tumor efficacy [16] was “robust anti-tumor efficacy”.
